The values below come from EP0782989A1, “INDOLE DERIVATIVES” (KYOWA HAKKO KOGYO CO., LTD., priority 1995, dated 1997).

For one assay, the system named is PTH enhanced bone. In words: Inhibitory effect on bone absorption (calcium liberation from PTH enhanced cultured calvaria). It is filed as cell-based, newborn dd mouse. The note with it: Mus musculus; calvaria culture with PTH 1 x 10^-8M, 96 hours, total calcium in the culture; test compound 3 x 10^-6M, 1 x 10^-5M, 3 x 10^-5M. Here is the method:
Test Example 1: Inhibitory effect on bone absorption The calvaria was excised from a newborn dd mouse (5 to 6 days old) under sterile conditions. The calvaria was washed with a modified Dulbecco phosphate buffer physiological saline solution containing neither calcium nor magnesium (a product of Gibco Oriental), and divided into two parts along the center suture. A half of the calvaria was cultivated in a modified Dulbecco Eagle medium (1.5 ml) (a product of Gibco Oriental) containing 2.5% fetal calf serum and 15% equine serum which had been inactivated by heating at 56°C for 20 minutes. The test compound was dissolved in dimethyl sulfoxide and 10 μl of the resulting solution was added to the culture medium to give the final concentrations of 3 x 10^-6M, 1 x 10^-5M, and 3 x 10^-5M. PTH (parathyroid hormone) was dissolved in a 0.15 M saline solution (pH 3) and 3 μl of the resulting solution was added to the culture medium to give the final concentration of 1 x 10^-8M. The culturing was carried out under the condition of 95% air and 5% carbon dioxide and at a temperature of 37°C for 96 hours. At 48 hours after the start of the culturing, the culture medium was renewed and the test compound and PTH treated as defined above were added thereto. For examining the effect of the test compound on calcium liberation (bone absorption) from the PTH enhanced bone, a control group, a group using PTH (1 x 10^-8M), and a group using both the test compound (3 […]) and PTH were prepared. The amount of the bone absorption was determined by measuring the amount of calcium accumulated in the culture as collected after 96 hours of culturing. The total calcium concentration in the culture was measured with Calcium C Test Wako. The inhibition rate was calculated using the following equation and the result was shown in terms of 50% inhibitory concentration (IC50). Inhibition of bone absorption from PTH enhanced bone Inhibition rate (%) = [(CP - CD )/(CP - C0 )] x 100 [formula] • C0 : The total calcium concentration in the culture containing neither the test compound nor PTH. • CP : The total calcium concentration in the culture treated with only PTH. • CD : The total calcium concentration in the culture treated with both the test compound and PTH.

Assay [1] concerns ovariectomized rats. Nature of the assay: Inhibitory effect on the increase of urinary hydroxyproline excretion by ovariectomy. The settings on record: Rattus norvegicus, po, 336 h; 10 mg/kg orally once a day for two weeks after ovariectomy; hydroxyproline/creatinine molar ratio in 24 hours urine; read-out: Inhibition rate of increase of the amount of urinary hydroxyproline excretion. The assay is classed as in vivo, SD strain rats.
Description: The inhibitory effect of the compounds of the present application on bone resorption was also determined by their inhibitory effect on the excretion of urinary hydroxyproline which is elevated by ovariectomy of the animals tested, according to the report of Kalu et al. [Bone and Mineral., 14, 175 (1991)].
Test Example 2: Inhibitory effect on the increase of urinary hydroxyproline excretion by ovariectomy
12-weeks-old female SD strain rats (Japan Clea Co., Ltd.) were acclimated for 1 week during which they were given tap water and a standard diet (F2; Funabashi Farmas) ad libitum. The experiment was carried out using the rats weighing 270-310 g. After the animals were subjected to sham operation or bilateral ovariectomy, they were allowed free access to water passed through ion exchange resin instead of tap water, and were housed in individual cages. The test compound (10 mg/kg) was suspended in 0.3% Tween or 0.5% methylcellulose, and the obtained suspension was orally administered to the ovariectomized rats once a day for two weeks starting from the day following ovariectomy (0.5 ml/100 g body weight). 0.3% Tween or 0.5% methylcellulose was similarly administered to sham-operated rats and ovariectomized control rats. After the final administration, the rats were placed in individual metabolic cages and fasted during 24 hours, and urine was collected. The volume of the collected urine was measured and the urine was centrifuged at 3,000 rpm for 15 min at 4°C. The concentration of hydroxyproline in the supernatant was measured by the method of Ikeda et al. [Ann. […] P. H., 36, 277-282 (1985)] and the concentration of creatinine in the supernatant was measured with creatinine test WAKO (Wako Pure Chem.) The amount of urinary hydroxyproline excretion was expressed by the molar ratio of the amount of hydroxyproline to the amount of creatinine. The rate of inhibition on increase of the amount of urinary hydroxyproline excretion in ovariectomized rats treated with the test compound compared to that of the control group was calculated using the following equation. Inhibition rate (%) = [(P1 - P2)/(P1 - P3)] x 100 [formula] • P1 : The amount of urinary hydroxyproline excretion in ovariectomized rats treated with 0.3% Tween (µmol/mmol). • P2 : The amount of urinary hydroxyproline excretion in ovariectomized rats treated with the test compound (µmol/mmol). • P3 : The amount of urinary hydroxyproline in sham-operated rats treated with 0.3% Tween (µmol/mmol).

For assay [2], the system named is ovariectomized rats. Nature of the assay: Inhibitory effect on decrease of bone density by ovariectomy (tibia, DEXA). The assay is classed as in vivo, SD strain rats. The note with it: 10 mg/kg orally once a day for 6 weeks. Here is the method:
Test Example 3: Inhibitory effect on decrease of bone density by ovariectomy
The experiment was carried out using 13-weeks-old female SD strain rats (Japan Crea Co. Ltd.) The animals were subjected to sham operation or bilateral ovariectomy under Nembutal anesthesia. The test compound (10 mg/kg) was dissolved or suspended in 0.5% methylcellulose (Shin-Etsu Chemical Co., Ltd.) and administered orally once a day from the first day after the operation for 6 weeks. For the sham-operated group and the ovariectomized control group, 0.5% methylcellulose (Shin-Etsu Chemical Co., Ltd.) was administered orally. The rat was slaughtered by femoral artery bleeding, the right hindlimb was ablated, and then the bone mineral content (BMC) and bone density (BD) of the tibia was measured according to a DEXA (DXA) method [Japan Clinic, 52 (9), 2329-2334 (1994)] using bone mineral measuring apparatus DCS-600 (Aloka Co., Ltd.). Tibial BMC and BD in the sham-operated, ovariectomized control, and test compound-treated ovariectomized group are shown in Table 4.

Counter-ions that a name gives are not always drawn.

Broadly, the IC50 is the point on the concentration scale where inhibition reaches its midpoint. In the case of `CCCc1ccc(NC(=O)c2c(C(c3ccccc3)c3ccc(O)cc3)c3ccccc3n2CCN(C)C)cc1` (centres unmarked) [Compound 120, N-(4-Propylphenyl)-1-(2-dimethylaminoethyl)-3-(4-hydroxybenzhydryl)indole-2-carboxamide hydrochloride], the IC50 in the assay with PTH enhanced bone worked out at 10.5 µM. The same measure, in the same setting: in the case of `CN(C)CCn1c(C(=O)N2CCOCC2)c(C(c2ccccc2)c2ccccc2)c2ccccc21` [Compound 13, 1-(2-Dimethylaminoethyl)-3-(diphenylmethyl)-2-(morpholinocarbonyl)indole] it was 11.2 µM. Take `CNC(=O)c1c(C(c2ccccc2)c2ccccc2)c2ccccc2n1CCN(C)C` [Compound 56, N-Methyl-1-(2-dimethylaminoethyl)-3-(diphenylmethyl)indole-2-carboxamide hydrochloride]: the inhibition in vivo at 10 mg/kg in the assay on ovariectomized rats [1] turned out to be 57%. In the assay on PTH enhanced bone, the IC50 worked out at 13 µM. Taken in the same sequence, the figures for `CN(C)CCn1c(C(=O)N2CCN(Cc3ccccc3)CC2)c(C(c2ccccc2)c2ccccc2)c2ccccc21` [Compound 15, 2-(4-Benzylpiperazinylcarbonyl)-1-(2-dimethylaminoethyl)-3-(diphenylmethyl)indole] were 100% and 14.3 µM.

As to `CN(C)CCn1c(C(=O)NCCCN2CCCC2=O)c(C(c2ccccc2)c2ccccc2)c2ccccc21` [Compound 21, N-[3-(2-Oxopyrrolidinyl)propyl]-1-(2-dimethylaminoethyl)-3-(diphenylmethyl)indole-2-carboxamide], the inhibition in vivo at 10 mg/kg in the assay on ovariectomized rats [1] is 100%. Further, in the assay on ovariectomized rats [2] (tibia bone density), the “BD (mg/cm^2)” value is given as 126.95 ± 1.78 mg/cm^2. The “BMC” value with ovariectomized rats [2] (tibia bone mineral content) is 268.81 ± 7.38 mg. Moreover, the IC50 in the assay with PTH enhanced bone came out at 14.3 µM.

Turning to `CN(C)CCn1c(C(=O)O)c(C(c2ccccc2)c2ccccc2)c2ccccc21` [Compound 6, 1-(2-Dimethylaminoethyl)-3-(diphenylmethyl)indole-2-carboxylic acid], in the assay with ovariectomized rats [1], the inhibition in vivo at 10 mg/kg was 100%. As for `CN(C)CCn1c(C(=O)NCCCN2CCOCC2)c(C(c2ccccc2)c2ccccc2)c2ccccc21` [Compound 20, N-(3-Morpholinopropyl)-1-(2-dimethylaminoethyl)-3-(diphenylmethyl)indole-2-carboxamide], the inhibition in vivo at 10 mg/kg in the assay with ovariectomized rats [1] is 100%. Further, in the assay on PTH enhanced bone, the IC50 was determined as 3.7 µM. In the case of `O=C(c1c(C(c2ccccc2)c2ccccc2)c2ccccc2n1CCN1CCCC1)N1CCN(c2ccccc2Cl)CC1` [Compound 4, 2-[4-(2-Chlorophenyl)piperazinylcarbonyl]-3-(diphenylmethyl)-1-(2-pyrrolidinylethyl)indole], the inhibition in vivo at 10 mg/kg in the assay with ovariectomized rats [1] was 43%. In the case of `CN(C)CCn1c(C(=O)N2CCCCC2)c(C(c2ccccc2)c2ccccc2)c2ccccc21` [Compound 10, 1-(2-Dimethylaminoethyl)-3-(diphenylmethyl)-2-(piperidinocarbonyl)indole], the IC50 in the assay with PTH enhanced bone was determined as 9.1 µM. For `CCCc1ccc(NC(=O)c2c(C(c3ccc(Cl)cc3)c3ccc(Cl)cc3)c3ccccc3n2CCN(C)C)cc1` [Compound 97, N-(4-propylphenyl)-3-[bis(4-chlorophenyl)methyl]-1-(2-dimethylaminoethyl)indole-2-carboxamide hydrochloride], in the assay on ovariectomized rats [1], the inhibition in vivo at 10 mg/kg was 40%. Further, the IC50 in the assay on PTH enhanced bone was found to be 14.3 µM. Taken in the same sequence, the figures for `CN(C)CCn1c(C(=O)NCCCn2ccnc2)c(C(c2ccccc2)c2ccccc2)c2ccccc21` [Compound 22, N-[3-(1-Imidazolyl)propyl]-1-(2-dimethylaminoethyl)-3-(diphenylmethyl)indole-2-carboxamide] were 87% and 13.7 µM. As for `CC(C)NC(=O)c1c(C(c2ccccc2)c2ccc(O)cc2)c2ccccc2n1CCN(C)C` (centres unmarked) [Compound 119, N-Isopropyl-1-(2-dimethylaminoethyl)-3-(4-hydroxybenzhydryl)indole-2-carboxamide hydrochloride], the IC50 in the assay with PTH enhanced bone amounted to 10.8 µM. As for `CN(C)CCn1c(C(=O)NCCCN2CCOCC2)c(C(c2ccccc2)c2ccc(O)cc2)c2ccccc21` (centres unmarked) [Compound 121, N-(3-Morpholinopropyl)-1-(2-dimethylaminoethyl)-3-(4-hydroxybenzhydryl)indole-2-carboxamide 2 hydrochloride], the inhibition in vivo at 10 mg/kg in the assay on ovariectomized rats [1] turned out to be 59%.

Regarding `CC(C)NC(=O)c1c(C(c2ccccc2)c2ccccc2)c2ccccc2n1CCN(C)C` [Compound 8, N-Isopropyl-1-(2-dimethylaminoethyl)-3-(diphenylmethyl)indole-2-carboxamide], the inhibition in vivo at 10 mg/kg with ovariectomized rats [1] came out at 100%. Moreover, in the assay with PTH enhanced bone, the IC50 stood at 14.3 µM.

Take `CCOC(=O)c1c(C(c2ccc(C)cc2)c2ccc(C)cc2)c2ccccc2n1CCN1CCCCC1` [Compound 98, Ethyl 3-[bis(4-methylphenyl)methyl]-1-(2-piperidinoethyl)indole-2-carboxylate]: the inhibition in vivo at 10 mg/kg in the assay on ovariectomized rats [1] was determined as 47%. `CN(C)CCn1c(C(=O)NC2CCCCCC2)c(C(c2ccccc2)c2ccccc2)c2ccccc21` [Compound 11, N-Cycloheptyl-1-(2-dimethylaminoethyl)-3-(diphenylmethyl)indole-2-carboxamide]: in the assay on ovariectomized rats [1], the inhibition in vivo at 10 mg/kg came out at 100%. Besides, the IC50 in the assay on PTH enhanced bone was found to be 17.5 µM. Take `CN(C)CCn1c(C(=O)N2CCN(c3ccccc3)CC2)c(C(c2ccccc2)c2ccccc2)c2ccccc21` [Compound 14, 1-(2-Dimethylaminoethyl)-3-(diphenylmethyl)-2-(4-phenylpiperazinylcarbonyl)indole]: in the assay on PTH enhanced bone, the IC50 is 10.9 µM. Consider `CN(C)CCn1c(C(=O)NC2CC2)c(C(c2ccccc2)c2ccccc2)c2ccccc21` [Compound 51, N-Cyclopropyl-1-(2-dimethylaminoethyl)-3-(diphenylmethyl)indole-2-carboxamide hydrochloride], for which, in the assay on ovariectomized rats [1], the inhibition in vivo at 10 mg/kg was 70%.

On to `O=C(NCCN1CCCCC1)c1c(C(c2ccccc2)c2ccccc2)c2ccccc2n1CCN1CCCC1` [Compound 62, N-(2-Piperidinoethyl)-3-(diphenylmethyl)-1-(2-pyrrolidinylethyl)indole-2-carboxamide 2 hydrochloride], for which, in the assay on ovariectomized rats [1], the inhibition in vivo at 10 mg/kg came to 53%. The concentration for half-maximal inhibition (IC50) in the assay on PTH enhanced bone came out at 18.1 µM. On the same counts, the results for `CCOC(=O)c1c(C(c2ccccc2)c2ccccc2)c2ccccc2n1CCCN(C)C` [Compound 64, Ethyl 1-(3-dimethylaminopropyl)-3-(diphenylmethyl)indole-2-carboxylate] are 77% and 16.7 µM.
